Test results reported in patent publication US9113629B2, “4-amino-6-(4-substituted-phenyl)-picolinates and 6-amino-2-(4-substituted-phenyl)-pyrimidine-4-carboxylates and their use as herbicides” (DOW AGROSCIENCES LLC, priority 2013, dated 2015).
Read-outs that look alike come from different tables or passages of the source.

Legend:
[1] = tested on: Key Grass and Sedge Weeds as well as Grass Crops; test: Post-emergent Test II herbicidal activity (Table 6); type: in vivo; settings: post-emergence, 336 h; for pest or weed control at 70 g/ha: 70 g ai/ha; for pest or weed control at 140 g/ha: 140 g ai/ha
Procedure, shortened: (§1)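 Visual injury ratings (0 = no injury, 100 = complete kill) were taken 14 d after treatment, relative to untreated plants. Seedlings at the first–second true leaf stage received overhead spray at 187 L/ha; the highest rate was serially diluted to ½×, ¼×, ⅛× and 1/16×.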

[2] = tested on: Key Broadleaf Weed and Crop Species; test: Post-emergent Test II herbicidal activity (Table 5); type: in vivo; settings: post-emergence, 336 h, 14 days after application; for pest or weed control at 70 g/ha: application rate 70 g ai/ha; for pest or weed control at 140 g/ha: application rate 140 g ai/ha
Procedure, shortened: as §1

[3] = CYPES: yellow nutsedge (Cyperus esculentus), read-out: Visual Growth Reduction (%) 14 Days After Application, CYPES
[4] = DIGSA: crabgrass (Digitaria sanguinalis), read-out: Visual Growth Reduction (%) 14 Days After Application, DIGSA
[5] = ECHCG: barnyardgrass (Echinochloa crus-galli), read-out: Visual Growth Reduction (%) 14 Days After Application, ECHCG
[6] = ORYSA: rice (Oryza sativa), crop, read-out: Visual Growth Reduction (%) 14 Days After Application, ORYSA
[7] = SETFA: giant foxtail (Setaria faberi), read-out: Visual Growth Reduction (%) 14 Days After Application, SETFA
[8] = SORVU: grain sorghum (Sorghum vulgare), read-out: Visual Growth Reduction (%) 14 Days After Application, SORVU
[9] = TRZSS (wheat, Triticum aestivum), crop, read-out: Visual Growth Reduction (%) 14 Days After Application, TRZSS
[10] = ZEAMX: maize, corn (Zea mays), crop, read-out: Visual Growth Reduction (%) 14 Days After Application, ZEAMX
[11] = ABUTH: velvetleaf (Abutilon theophrasti), read-out: Visual Growth Reduction (%) 14 Days After Application, ABUTH
[12] = AMARE: redroot pigweed (Amaranthus retroflexus), read-out: Visual Growth Reduction (%) 14 Days After Application, AMARE
[13] = BRSNN: oilseed-rape, canola (Brassica napus), read-out: Visual Growth Reduction (%) 14 Days After Application, BRSNN
[14] = CHEAL: lambsquarters (Chenopodium album), read-out: Visual Growth Reduction (%) 14 Days After Application, CHEAL
[15] = EPHHL: wild poinsettia (Euphorbia heterophylla), read-out: Visual Growth Reduction (%) 14 Days After Application, EPHHL
[16] = HELAN: sunflower (Helianthus annuus), read-out: Visual Growth Reduction (%) 14 Days After Application, HELAN
[17] = VIOTR: wild pansy (Viola tricolor), read-out: Visual Growth Reduction (%) 14 Days After Application, VIOTR

SMILES | pest or weed control at 70 g/ha [1, 3] [%] | pest or weed control at 140 g/ha [1, 3] [%] | pest or weed control at 70 g/ha [1, 4] [%] | pest or weed control at 140 g/ha [1, 4] [%] | pest or weed control at 70 g/ha [1, 5] [%] | pest or weed control at 140 g/ha [1, 5] [%] | pest or weed control at 70 g/ha [1, 6] [%] | pest or weed control at 140 g/ha [1, 6] [%] | pest or weed control at 70 g/ha [1, 7] [%] | pest or weed control at 140 g/ha [1, 7] [%] | pest or weed control at 70 g/ha [1, 8] [%] | pest or weed control at 140 g/ha [1, 8] [%] | pest or weed control at 70 g/ha [1, 9] [%] | pest or weed control at 140 g/ha [1, 9] [%] | pest or weed control at 70 g/ha [1, 10] [%] | pest or weed control at 140 g/ha [1, 10] [%] | pest or weed control at 70 g/ha [2, 11] [%] | pest or weed control at 140 g/ha [2, 11] [%] | pest or weed control at 70 g/ha [2, 12] [%] | pest or weed control at 140 g/ha [2, 12] [%] | other results
C#Cc1ccc(-c2nc(C(=O)OC)c(Cl)c(N)c2F)cc1 [Compound 7, methyl 4-amino-3-chloro-6-(4-ethynylphenyl)-5-fluoropicolinate] | 75 to 84 | 85 to 94 | 75 to 84 | 85 to 94 | 75 to 84 | 95 to 100 | 0 to 29 | 0 to 29 | 60 to 74 | 95 to 100 | 85 to 94 | 85 to 94 | 30 to 44 | 45 to 59 | 95 to 100 | 95 to 100 | 95 to 100 | 95 to 100 | 95 to 100 | 95 to 100 | melting point: 127 to 130 °C; pest or weed control at 70 g/ha [2, 13]: 85 to 94%; pest or weed control at 140 g/ha [2, 13]: 85 to 94%; pest or weed control at 70 g/ha [2, 14]: 95 to 100%; pest or weed control at 140 g/ha [2, 14]: 95 to 100%; pest or weed control at 70 g/ha [2, 15]: 85 to 94%; pest or weed control at 140 g/ha [2, 15]: 95 to 100%; pest or weed control at 70 g/ha [2, 16]: 85 to 94%; pest or weed control at 140 g/ha [2, 16]: 95 to 100%; pest or weed control at 70 g/ha [2, 17]: 0 to 29%; pest or weed control at 140 g/ha [2, 17]: 0 to 29%
COC(=O)c1nc(-c2ccc(Br)c(F)c2)c(F)c(N)c1Cl [Compound 49] | 95 to 100 | 85 to 94 | 60 to 74 | 75 to 84 | 85 to 94 | 95 to 100 | 0 to 29 | 0 to 29 | 60 to 74 | 95 to 100 | 95 to 100 | 95 to 100 | 45 to 59 | 60 to 74 | 95 to 100 | 95 to 100 | 95 to 100 | 95 to 100 | 95 to 100 | 95 to 100 | pest or weed control at 70 g/ha [2, 13]: 95 to 100%; pest or weed control at 140 g/ha [2, 13]: 95 to 100%; pest or weed control at 70 g/ha [2, 14]: 95 to 100%; pest or weed control at 140 g/ha [2, 14]: 95 to 100%; pest or weed control at 70 g/ha [2, 16]: 95 to 100%; pest or weed control at 140 g/ha [2, 16]: 95 to 100%; pest or weed control at 70 g/ha [2, 17]: 95 to 100%; pest or weed control at 140 g/ha [2, 17]: 95 to 100%
Nc1c(F)c(-c2ccccc2)nc(C(=O)O)c1Cl [Compound 180] | 30 to 44 | 45 to 59 | 0 to 29 | 0 to 29 | 0 to 29 | 0 to 29 | 0 to 29 | 0 to 29 | 0 to 29 | 0 to 29 | 0 to 29 | 30 to 44 | 0 to 29 | 0 to 29 | 0 to 29 | 0 to 29 | 85 to 94 | 95 to 100 | 45 to 59 | 75 to 84 | pest or weed control at 70 g/ha [2, 13]: 85 to 94%; pest or weed control at 140 g/ha [2, 13]: 95 to 100%; pest or weed control at 70 g/ha [2, 14]: 95 to 100%; pest or weed control at 140 g/ha [2, 14]: 95 to 100%; pest or weed control at 70 g/ha [2, 15]: 60 to 74%; pest or weed control at 140 g/ha [2, 15]: 75 to 84%; pest or weed control at 70 g/ha [2, 16]: 85 to 94%; pest or weed control at 140 g/ha [2, 16]: 85 to 94%; pest or weed control at 70 g/ha [2, 17]: 0 to 29%; pest or weed control at 140 g/ha [2, 17]: 0 to 29%
